Results published in ChEMBL document CHEMBL1201862, “PubChem BioAssay data set” (2004).
Activity calls are given as the source filed them.

Key:
[1] = biological target: T1, Calpain-2 catalytic subunit (Sus scrofa, UniProt P43367); assay: m-calpain protease blockers, concentration series – biochemical, fluorogenic peptide substrate, dose response (AID 1420); type: functional
T1 sequence (P43367 whole entry): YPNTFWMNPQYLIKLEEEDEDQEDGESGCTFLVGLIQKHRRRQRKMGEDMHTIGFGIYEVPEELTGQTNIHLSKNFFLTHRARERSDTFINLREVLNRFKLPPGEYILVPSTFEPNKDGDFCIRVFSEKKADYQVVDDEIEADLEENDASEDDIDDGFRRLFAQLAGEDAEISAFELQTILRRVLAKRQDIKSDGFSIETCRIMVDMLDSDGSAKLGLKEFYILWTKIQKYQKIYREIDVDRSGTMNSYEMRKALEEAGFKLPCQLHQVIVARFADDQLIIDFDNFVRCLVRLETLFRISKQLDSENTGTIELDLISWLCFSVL

[2] = A549 cell cytotoxicity, dose response, cytotoxicity control, plate reader, cherry-pick, antagonist series (AID 743412); type: functional, cell-based
[3] = blockers of bursicon-stimulated LGR2 cAMP reporter – cell-based, HEK293, CRE-luciferase reporter, cherry pick, set 2, dose response (AID 743343); type: functional;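 note: transfected cells were stimulated with diluted bursicon conditioned medium after compound addition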
[4] = blockade of melanocortin 4 receptor signaling – cell-based, plate reader, cherry pick, counter-screen for LGR2 antagonist project, dose response (AID 743444); type: functional;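 note: transfected HEK 293 cells stimulated with alpha-MSH peptide; potency of inhibitors of the alpha-MSH evoked signal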
[5] = viability loss in HEK293 cells – cell-based, plate reader, cherry-picked samples, cytotoxicity control, dose response (AID 743446); type: functional
[6] = toxicity toward HepG2 liver cells – cell-based, plate reader, cherry-pick, antagonist series, cytotoxicity control, dose response (AID 743416); type: functional
[7] = biological target: FAD-linked sulfhydryl oxidase ALR (Homo sapiens, UniProt P55789); assay: ALR-catalysed DTT oxidation blockers – biochemical, H2O2 detection, luminescence, cherry-pick, dose response (AID 493248)
Sequence of FAD-linked sulfhydryl oxidase ALR (P55789 whole entry): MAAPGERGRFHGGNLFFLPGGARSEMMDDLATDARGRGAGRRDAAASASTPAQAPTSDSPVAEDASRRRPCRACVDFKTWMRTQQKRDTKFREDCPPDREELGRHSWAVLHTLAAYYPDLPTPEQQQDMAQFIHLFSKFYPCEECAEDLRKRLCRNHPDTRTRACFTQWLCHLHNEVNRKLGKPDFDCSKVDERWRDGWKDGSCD

[8] = biological target: T2, Rac GTPase-activating protein 1 (Homo sapiens, UniProt Q9H0H5); assay: blockers of MgcRacGAP-driven Rac1 GTP hydrolysis – biochemical, ADP Hunter fluorescence, primary and confirmatory, confirmation (AID 624330); type: functional
T2 sequence (Q9H0H5 whole entry): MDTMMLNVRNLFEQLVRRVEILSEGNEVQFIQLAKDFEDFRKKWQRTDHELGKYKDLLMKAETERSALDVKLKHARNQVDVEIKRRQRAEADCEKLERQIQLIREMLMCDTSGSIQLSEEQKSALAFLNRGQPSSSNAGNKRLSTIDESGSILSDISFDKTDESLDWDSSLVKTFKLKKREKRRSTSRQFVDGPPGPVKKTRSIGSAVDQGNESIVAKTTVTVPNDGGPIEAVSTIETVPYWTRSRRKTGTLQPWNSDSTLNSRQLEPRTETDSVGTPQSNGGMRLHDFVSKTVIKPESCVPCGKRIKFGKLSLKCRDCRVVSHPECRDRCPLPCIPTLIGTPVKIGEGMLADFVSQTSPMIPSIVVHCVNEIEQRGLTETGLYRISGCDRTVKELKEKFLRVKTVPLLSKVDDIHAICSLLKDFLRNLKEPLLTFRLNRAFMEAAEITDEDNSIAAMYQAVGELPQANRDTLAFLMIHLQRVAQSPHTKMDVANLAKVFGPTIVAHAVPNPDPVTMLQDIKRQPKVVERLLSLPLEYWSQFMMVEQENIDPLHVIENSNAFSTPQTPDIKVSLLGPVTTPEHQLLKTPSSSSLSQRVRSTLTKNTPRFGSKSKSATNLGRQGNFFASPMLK

[9] = microbe, parasite or virus in culture; type: functional; conditions: Mycobacterium tuberculosis
H9c2 = assay: cells; type: functional, cell-based; conditions: Rattus norvegicus, H9c2, Myocardium;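 note: confirmatory concentration-response retest of ultra-high-throughput screening hits for modulation of myocardial damage; cell death induced by hydrogen peroxide oxidative stress; compound pretreatment for 60 min then peroxide exposure for 2 h; potency is for protecting the cells against peroxide damage rather than for killing them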
[10] = biological target: T3, Polyadenylate-binding protein 1 (Homo sapiens, UniProt P11940); assay: MLLE domain peptide-binding blockers, IC50 – biochemical, fluorescence polarization, FITC-PAM2 peptide, dose response (AID 602259); type: functional; conditions: read-out: IC50_Mean
T3 sequence (P11940 whole entry, the tested form may be a part): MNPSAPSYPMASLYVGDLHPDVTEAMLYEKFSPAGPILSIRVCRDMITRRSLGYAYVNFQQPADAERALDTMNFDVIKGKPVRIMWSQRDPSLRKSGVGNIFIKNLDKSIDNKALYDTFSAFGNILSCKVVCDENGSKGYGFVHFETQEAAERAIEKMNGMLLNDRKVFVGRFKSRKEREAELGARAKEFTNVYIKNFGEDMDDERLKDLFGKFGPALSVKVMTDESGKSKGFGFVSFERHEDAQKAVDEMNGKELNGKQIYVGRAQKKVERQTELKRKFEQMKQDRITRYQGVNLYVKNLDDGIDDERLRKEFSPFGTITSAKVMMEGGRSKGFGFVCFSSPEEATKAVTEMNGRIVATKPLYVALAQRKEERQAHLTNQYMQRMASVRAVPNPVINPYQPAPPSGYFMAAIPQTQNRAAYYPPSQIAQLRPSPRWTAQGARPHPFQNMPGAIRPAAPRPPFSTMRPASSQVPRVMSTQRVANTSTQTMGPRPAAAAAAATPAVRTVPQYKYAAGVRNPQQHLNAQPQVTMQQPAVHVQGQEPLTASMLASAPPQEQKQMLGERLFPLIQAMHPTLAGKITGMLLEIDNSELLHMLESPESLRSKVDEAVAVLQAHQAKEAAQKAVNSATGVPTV

[11] = biological target: T3, Polyadenylate-binding protein 1; assay: MLLE binding blockers, Cy5 peptide tracer – biochemical, fluorescence polarization, Cy5-PAM2 peptide, secondary, miRNA deadenylation inhibitor project, dose response (AID 602260); type: functional; conditions: read-out: IC50_Mean
[12] = biological target: T4, High affinity choline transporter 1 (Homo sapiens, UniProt Q9GZV3); assay: human choline transporter blockers, potency – cell-based, 5-point CRC, membrane potential dye, dose response (AID 504840); type: functional
T4 sequence (Q9GZV3 whole entry): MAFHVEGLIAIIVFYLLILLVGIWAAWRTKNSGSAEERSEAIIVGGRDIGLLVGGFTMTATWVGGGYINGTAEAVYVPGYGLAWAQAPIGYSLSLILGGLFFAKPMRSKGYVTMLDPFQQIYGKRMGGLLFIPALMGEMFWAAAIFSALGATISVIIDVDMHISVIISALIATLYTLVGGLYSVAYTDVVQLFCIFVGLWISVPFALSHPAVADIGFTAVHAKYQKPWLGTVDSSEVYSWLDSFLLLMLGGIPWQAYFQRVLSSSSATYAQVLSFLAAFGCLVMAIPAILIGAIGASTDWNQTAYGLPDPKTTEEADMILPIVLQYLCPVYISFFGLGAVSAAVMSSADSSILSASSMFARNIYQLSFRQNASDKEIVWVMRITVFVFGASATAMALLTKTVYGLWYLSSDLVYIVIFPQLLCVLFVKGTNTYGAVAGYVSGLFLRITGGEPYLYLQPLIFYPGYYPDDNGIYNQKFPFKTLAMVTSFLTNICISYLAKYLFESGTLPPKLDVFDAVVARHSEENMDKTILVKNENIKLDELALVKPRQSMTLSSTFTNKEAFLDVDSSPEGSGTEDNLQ

[13] = DRD fibroblast viability loss – cell-based, non-viral oncogenic, luminescence, dose response (AID 1934); type: functional; conditions: Homo sapiens
BJ [14] = assay: cells; type: functional, cell-based; conditions: Homo sapiens
BJ [15] = assay: BJ-TERT fibroblast viability loss – cell-based, RAS-independent, luminescence, dose response (AID 1933); type: functional; conditions: Homo sapiens
BJ [16] = assay: BJ-TERT-LT-ST fibroblast viability loss – cell-based, RAS-independent, luminescence, dose response (AID 1935); type: functional; conditions: Homo sapiens;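 note: BJ fibroblasts immortalized with TERT plus LT and ST oncogenes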

CC(=O)Nc1ccc(Nc2ccc(S(=O)(=O)C(F)(F)F)cc2[N+](=O)[O-])cc1
IC50 [1]: 20 µM (not active)

C=CCNC(=S)N/N=C/c1ccc(C)s1
IC50 [1]: 27.1 µM (not active)

COc1ccccc1C#Cc1ccc([C@H]2[C@H](C#N)N(C(=O)C3CCCCC3)[C@H]2CO)cc1
AC50 [2]: 24.5 µM (active) | AC50 [3]: 5.49 µM (active) | AC50 [4]: 5.75 µM (active) | AC50 [5]: 9.53 µM (active) | AC50 [6]: 43.7 µM (active)

Cc1cc(N2CCCC2)ccc1NC(=O)CN1C(=O)NC2(CCCCC2)C1=O
AC50 [7]: 0.644 µM (active) | IC50 [8]: 268 µM (active)

CSCCCN=C(S)N1CCN(c2ccc(C(C)=O)cc2)CC1
CC50 [9]: > 40 µM (active)

CCOc1ccc(CCNC(=O)c2cc3c(C)nccc3nc2O)cc1OCC
IC50 (H9c2): > 79 µM (inactive)

c1ccc2nc3[nH]cnc3nc2c1
IC50 [10]: > 66 µM (inactive) | IC50 [11]: > 66 µM (inactive)

CC(C)NC(=S)N/N=C/C1=CCC2CC1C2(C)C (centres undefined)
IC50 [1]: 49 µM (not active)

CC1CCN(S(=O)(=O)c2nnc(NC(=O)c3cccc([N+](=O)[O-])c3)s2)CC1
IC50 [12]: 11.5 µM (active)

CCCn1nc2cc(C(=O)NCc3ccc(C)cc3)ccc2c1OCC
IC50 [12]: 8.18 µM (active)

O=C1CCCc2cc3c(cc21)CC1(C3)Cc2cc3c(cc2C1)C(=O)CCC3
EC50 [13]: 15.6 µM (active) | EC50 (BJ [14]): 33 µM (active) | EC50 (BJ [15]): 9.1 µM (active) | EC50 (BJ [16]): 3.95 µM (inconclusive)

O=C1C=C(NNC(=O)c2cccnc2)CC(c2ccco2)C1 (centres undefined)
IC50 [10]: > 66 µM (inactive) | IC50 [11]: > 66 µM (inactive)

CC(C)c1ccc(NC2CCCN(C(=O)c3cc(C(C)C)nc(N)n3)C2)cc1 (centres undefined)
AC50 [7]: 0.714 µM (active)

Cc1cc(C(F)(F)F)nc(SCC(=O)NC2=NC(=O)C(C)S2)n1 (centres undefined)
IC50 [10]: > 66 µM (inactive) | IC50 [11]: > 66 µM (inactive)

Cc1cccc(NC(=O)c2[nH]cnc2C(=O)NCC(=O)OCc2ccccc2)c1
IC50 (H9c2): > 79 µM (inactive)

COc1ccc(-c2ccc3c(c2)S(=O)(=O)c2cccc(C(=O)NC[C@@H]4CCCO4)c2C3=O)cc1OC
IC50 (H9c2): > 79 µM (inactive)

CCOC(=O)COc1ccc2c3c(c(=O)oc2c1)CCCC3
IC50 (H9c2): 31.2 µM (inactive)

Cc1ncsc1CCC(=O)N1CCCC(Nc2ccc(C(C)C)cc2)C1 (centres undefined)
AC50 [7]: 3.68 µM (active)
